Where “and” joins values, the source holds several entries; their conditions need not be identical. Identical values can stand only once.
Assay: Tissue distribution of radioactivity in mice
Format: in vivo, mouse
Settings: mean ± SD n = 4
Protocol: [^11C]MMP (8.1 MBq/17 pmol) was injected intravenously into 8-week-old male ddY mice (37.8–42.4 g). The tracer-injected mice were housed individually in filter-paper-lined animal-rearing cages until the time of euthanasia. Mice were euthanized by cervical dislocation at 1, 5, 15, 30, 60, and 90 min after injection (n = 4 each). Blood was collected by heart puncture, and the tissues were harvested. Radioactivity excreted into urine was recovered from the cage floor and by cystocentesis from the urinary bladder. The samples were measured for ^11C radioactivity with an auto-gamma counter (Hidex-AMG, Turku, Finland) and weighed. Tissue uptake of ^11C was expressed as the percentage of injected dose per organ (%ID/organ) or the percentage of injected dose per gram of tissue (%ID/g). The tissue distribution data were extrapolated to an adult male phantom using the %kg/g method (Blau [1975]). The radiation absorbed dose and effective dose for human adults were estimated using OLINDA/EXM software (Vanderbilt University, Nashville, TN) (Stabin et al. [2005]). Effective dose was estimated using the risk-weighting factor of ICRP Publication 103 (ICRP [2007]).

CC(C)NC(C)Cc1ccc([11CH3])cc1 (centres unmarked) [[^11C]MMP, N-isopropyl-4-[^11C]methylamphetamine]
Injected dose/g tissue (%), Blood (1 min after i.v. injection): 1.40 ± 0.24 %ID/g | Injected dose/g tissue (%), Bone (1 min after i.v. injection): 2.21 ± 0.54 %ID/g | Injected dose/g tissue (%), Brain (1 min after i.v. injection): 5.75 ± 0.42 %ID/g | Injected dose/g tissue (%), Heart (1 min after i.v. injection): 8.23 ± 1.30 %ID/g | Injected dose/g tissue (%), Kidney (1 min after i.v. injection): 12.93 ± 7.10 %ID/g | Injected dose/g tissue (%), Large intestine (1 min after i.v. injection): 1.92 ± 0.95 %ID/g | Injected dose/g tissue (%), Liver (1 min after i.v. injection): 1.56 ± 0.87 %ID/g | Injected dose/g tissue (%), Lung (1 min after i.v. injection): 28 %ID/g and 27.53 ± 4.66 %ID/g | Injected dose/g tissue (%), Muscle (1 min after i.v. injection): 1.77 ± 0.86 %ID/g | Injected dose/g tissue (%), Pancreas (1 min after i.v. injection): 3.96 ± 1.02 %ID/g | Injected dose/g tissue (%), Small intestine (1 min after i.v. injection): 1.49 ± 0.84 %ID/g | Injected dose/g tissue (%), Spleen (1 min after i.v. injection): 1.46 ± 0.42 %ID/g | Injected dose/g tissue (%), Stomach (1 min after i.v. injection): 2.06 ± 1.30 %ID/g | Injected dose/g tissue (%), Testis (1 min after i.v. injection): 0.96 ± 0.24 %ID/g | Injected dose/organ (%), Bladder (1 min after i.v. injection): 0.07 ± 0.05 %ID/organ | Injected dose/organ (%), Bladder + urine (1 min after i.v. injection): 0.07 ± 0.05 %ID/organ | Injected dose/organ (%), Brain (1 min after i.v. injection): 2.28 ± 0.25 %ID/organ | Injected dose/organ (%), Heart (1 min after i.v. injection): 1.56 ± 0.27 %ID/organ | Injected dose/organ (%), Kidney (1 min after i.v. injection): 7.4 %ID/organ and 7.44 ± 4.00 %ID/organ | Injected dose/organ (%), Large intestine (1 min after i.v. injection): 2.47 ± 1.19 %ID/organ | Injected dose/organ (%), Liver (1 min after i.v. injection): 2.63 ± 1.23 %ID/organ | Injected dose/organ (%), Lung (1 min after i.v. injection): 5.54 ± 0.95 %ID/organ | Injected dose/organ (%), Pancreas (1 min after i.v. injection): 0.76 ± 0.23 %ID/organ | Injected dose/organ (%), Small intestine (1 min after i.v. injection): 2.74 ± 1.46 %ID/organ | Injected dose/organ (%), Spleen (1 min after i.v. injection): 0.17 ± 0.07 %ID/organ | Injected dose/organ (%), Stomach (1 min after i.v. injection): 1.59 ± 1.06 %ID/organ | Injected dose/organ (%), Testis (1 min after i.v. injection): 0.24 ± 0.03 %ID/organ | Injected dose/organ (%), Urine (1 min after i.v. injection): 0.00 ± 0.00 %ID/organ | Injected dose/g tissue (%), Blood (5 min after i.v. injection): 1.10 ± 0.14 %ID/g | Injected dose/g tissue (%), Bone (5 min after i.v. injection): 2.20 ± 0.30 %ID/g | Injected dose/g tissue (%), Brain (5 min after i.v. injection): 6.87 ± 0.62 %ID/g | Injected dose/g tissue (%), Heart (5 min after i.v. injection): 3.53 ± 0.21 %ID/g | Injected dose/g tissue (%), Kidney (5 min after i.v. injection): 16.26 ± 1.85 %ID/g | Injected dose/g tissue (%), Large intestine (5 min after i.v. injection): 2.36 ± 0.41 %ID/g | Injected dose/g tissue (%), Liver (5 min after i.v. injection): 4.30 ± 0.84 %ID/g | Injected dose/g tissue (%), Lung (5 min after i.v. injection): 21.20 ± 1.81 %ID/g | Injected dose/g tissue (%), Muscle (5 min after i.v. injection): 2.14 ± 0.14 %ID/g | Injected dose/g tissue (%), Pancreas (5 min after i.v. injection): 8.21 ± 0.70 %ID/g | Injected dose/g tissue (%), Small intestine (5 min after i.v. injection): 3.65 ± 0.21 %ID/g | Injected dose/g tissue (%), Spleen (5 min after i.v. injection): 5.09 ± 0.59 %ID/g | Injected dose/g tissue (%), Stomach (5 min after i.v. injection): 3.24 ± 1.94 %ID/g | Injected dose/g tissue (%), Testis (5 min after i.v. injection): 1.26 ± 0.25 %ID/g | Injected dose/organ (%), Bladder (5 min after i.v. injection): 0.09 ± 0.03 %ID/organ | Injected dose/organ (%), Bladder + urine (5 min after i.v. injection): 3.51 ± 1.80 %ID/organ | Injected dose/organ (%), Brain (5 min after i.v. injection): 2.68 ± 0.33 %ID/organ | Injected dose/organ (%), Heart (5 min after i.v. injection): 0.63 ± 0.05 %ID/organ | Injected dose/organ (%), Kidney (5 min after i.v. injection): 9.5 %ID/organ and 9.54 ± 0.98 %ID/organ | Injected dose/organ (%), Large intestine (5 min after i.v. injection): 2.7 %ID/organ and 2.68 ± 0.45 %ID/organ | Injected dose/organ (%), Liver (5 min after i.v. injection): 9.53 ± 2.41 %ID/organ | Injected dose/organ (%), Lung (5 min after i.v. injection): 3.21 ± 0.65 %ID/organ | Injected dose/organ (%), Pancreas (5 min after i.v. injection): 1.70 ± 0.23 %ID/organ | Injected dose/organ (%), Small intestine (5 min after i.v. injection): 6.8 %ID/organ and 6.77 ± 0.37 %ID/organ | Injected dose/organ (%), Spleen (5 min after i.v. injection): 0.57 ± 0.05 %ID/organ | Injected dose/organ (%), Stomach (5 min after i.v. injection): 1.88 ± 0.90 %ID/organ | Injected dose/organ (%), Testis (5 min after i.v. injection): 0.32 ± 0.06 %ID/organ | Injected dose/organ (%), Urine (5 min after i.v. injection): 3.42 ± 1.82 %ID/organ | Injected dose/g tissue (%), Blood (15 min after i.v. injection): 0.72 ± 0.23 %ID/g | Injected dose/g tissue (%), Bone (15 min after i.v. injection): 1.29 ± 0.18 %ID/g | Injected dose/g tissue (%), Brain (15 min after i.v. injection): 4.83 ± 0.21 %ID/g | Injected dose/g tissue (%), Heart (15 min after i.v. injection): 1.93 ± 0.18 %ID/g | Injected dose/g tissue (%), Kidney (15 min after i.v. injection): 11.36 ± 1.39 %ID/g | Injected dose/g tissue (%), Large intestine (15 min after i.v. injection): 1.59 ± 0.62 %ID/g | Injected dose/g tissue (%), Liver (15 min after i.v. injection): 6.07 ± 1.10 %ID/g | Injected dose/g tissue (%), Lung (15 min after i.v. injection): 7.97 ± 0.89 %ID/g | Injected dose/g tissue (%), Muscle (15 min after i.v. injection): 1.22 ± 0.10 %ID/g | Injected dose/g tissue (%), Pancreas (15 min after i.v. injection): 8.55 ± 1.10 %ID/g | Injected dose/g tissue (%), Small intestine (15 min after i.v. injection): 3.29 ± 0.83 %ID/g | Injected dose/g tissue (%), Spleen (15 min after i.v. injection): 4.45 ± 0.69 %ID/g | Injected dose/g tissue (%), Stomach (15 min after i.v. injection): 4.51 ± 1.35 %ID/g | Injected dose/g tissue (%), Testis (15 min after i.v. injection): 1.63 ± 0.16 %ID/g | Injected dose/organ (%), Bladder (15 min after i.v. injection): 0.60 ± 0.32 %ID/organ | Injected dose/organ (%), Bladder + urine (15 min after i.v. injection): 13.64 ± 2.31 %ID/organ | Injected dose/organ (%), Brain (15 min after i.v. injection): 2.12 ± 0.06 %ID/organ | Injected dose/organ (%), Heart (15 min after i.v. injection): 0.33 ± 0.02 %ID/organ | Injected dose/organ (%), Kidney (15 min after i.v. injection): 7.47 ± 1.09 %ID/organ | Injected dose/organ (%), Large intestine (15 min after i.v. injection): 2.13 ± 1.04 %ID/organ | Injected dose/organ (%), Liver (15 min after i.v. injection): 15 %ID/organ and 14.98 ± 2.48 %ID/organ | Injected dose/organ (%), Lung (15 min after i.v. injection): 1.47 ± 0.10 %ID/organ | Injected dose/organ (%), Pancreas (15 min after i.v. injection): 1.74 ± 0.24 %ID/organ | Injected dose/organ (%), Small intestine (15 min after i.v. injection): 6.13 ± 1.74 %ID/organ | Injected dose/organ (%), Spleen (15 min after i.v. injection): 0.64 ± 0.12 %ID/organ | Injected dose/organ (%), Stomach (15 min after i.v. injection): 2.46 ± 0.69 %ID/organ | Injected dose/organ (%), Testis (15 min after i.v. injection): 0.45 ± 0.05 %ID/organ | Injected dose/organ (%), Urine (15 min after i.v. injection): 13.03 ± 2.51 %ID/organ | Injected dose/g tissue (%), Blood (30 min after i.v. injection): 0.62 ± 0.21 %ID/g | Injected dose/g tissue (%), Bone (30 min after i.v. injection): 0.76 ± 0.26 %ID/g | Injected dose/g tissue (%), Brain (30 min after i.v. injection): 2.63 ± 0.22 %ID/g | Injected dose/g tissue (%), Heart (30 min after i.v. injection): 1.16 ± 0.22 %ID/g | Injected dose/g tissue (%), Kidney (30 min after i.v. injection): 7.08 ± 1.91 %ID/g | Injected dose/g tissue (%), Large intestine (30 min after i.v. injection): 1.22 ± 0.63 %ID/g | Injected dose/g tissue (%), Liver (30 min after i.v. injection): 5.46 ± 0.97 %ID/g | Injected dose/g tissue (%), Lung (30 min after i.v. injection): 3.68 ± 0.50 %ID/g | Injected dose/g tissue (%), Muscle (30 min after i.v. injection): 0.78 ± 0.17 %ID/g | Injected dose/g tissue (%), Pancreas (30 min after i.v. injection): 4.58 ± 0.52 %ID/g | Injected dose/g tissue (%), Small intestine (30 min after i.v. injection): 2.14 ± 0.67 %ID/g | Injected dose/g tissue (%), Spleen (30 min after i.v. injection): 2.48 ± 0.45 %ID/g | Injected dose/g tissue (%), Stomach (30 min after i.v. injection): 2.69 ± 0.26 %ID/g | Injected dose/g tissue (%), Testis (30 min after i.v. injection): 1.69 ± 0.36 %ID/g

From publication PMC11266321 (EJNMMI Radiopharmacy and Chemistry, 2024)
